Data reported in publication PMC12081876, “Identification of PTGR2 inhibitors as a new therapeutic strategy for diabetes and obesity” (EMBO Molecular Medicine, 2025).
Several values for one entry are separate records, joined by “and”; a condition that tells them apart may be missing. Equal values may be shown once.

How the values were obtained:
[1] = tested on: HFHSD-fed obese C57BL6/J mice; assay: Fasting glucose in HFHSD-fed mice; type: in vivo, mouse; design: Fasting glucose, Average / Fasting glucose (individual mouse): unit not given here; details: for Fasting glucose, Average / Fasting glucose (individual mouse): Figure 5K; for Fasting glucose, Average: 100 mg/kg/day; for Fasting glucose (individual mouse): BPRPT0245 group
Procedure: Ptgr2^+/+ and Ptgr2^−/− mice were created by the Transgenic Mouse Model Core Facility of the National Core Facility for Biopharmaceuticals, Ministry of Science and Technology, Taiwan and the Animal Resources Laboratory of National Taiwan University Centers of Genomic and Precision Medicine. C57BL6/J mice were purchased from National Laboratory Animal Center. All animal experiments were performed according to institutional ethical guidelines and were approved by the Institutional Animal Care and Use Committee (IACUC) of National Taiwan University Medical College (IACUC No.: 20140456). All mice were housed under standard conditions at 23 °C and 12/12 h. light/dark (7 AM–7 PM) cycle in animal centers of the National Taiwan University Medical College, which is accredited by the Association for Assessment and Accreditation of Laboratory Animal Care International (AAALAC). Mice were provided shelters and sticks weekly. We used adequate anesthetic procedure to reduce pain, suffering and distress according to our animal center regulation. We reported expected or unexpected adverse events to the veterinarian of our animal center. The humane endpoints include 20% weight loss, rough hair coat, hunched posture, lethargy or persistent, or any condition interfering with eating or drinking. Eight-week-old male mice were fed on either a high-fat high-sucrose diet (HFHSD) (cat. no. D12331, Research Diets) or a regular chow diet (cat no. 5001, Lab Diet). BPRPT0245 was dissolved 3% dimethylacetamide and 10% cremophor in water and administered daily to HFHSD-fed obese C57BL6/J mice by oral gavage (100 mg/kg/day).

[2] = target: T1, mPPARγ C313A (Mus musculus, UniProt P37238, C313A); assay: PPRE reporter assay in HEK293T cells, C313A mutant mPPARγ; type: cell-based, murine; design: key to PPRE reporter activity, Fig 1M replicates: luciferase activity normalized to TK reporter signal; details: for PPRE reporter activity, Fig 1M replicates: PPARg C313A
T1 construct: host or cells: HEK293T
T1 sequence (P37238 1-505 C313A): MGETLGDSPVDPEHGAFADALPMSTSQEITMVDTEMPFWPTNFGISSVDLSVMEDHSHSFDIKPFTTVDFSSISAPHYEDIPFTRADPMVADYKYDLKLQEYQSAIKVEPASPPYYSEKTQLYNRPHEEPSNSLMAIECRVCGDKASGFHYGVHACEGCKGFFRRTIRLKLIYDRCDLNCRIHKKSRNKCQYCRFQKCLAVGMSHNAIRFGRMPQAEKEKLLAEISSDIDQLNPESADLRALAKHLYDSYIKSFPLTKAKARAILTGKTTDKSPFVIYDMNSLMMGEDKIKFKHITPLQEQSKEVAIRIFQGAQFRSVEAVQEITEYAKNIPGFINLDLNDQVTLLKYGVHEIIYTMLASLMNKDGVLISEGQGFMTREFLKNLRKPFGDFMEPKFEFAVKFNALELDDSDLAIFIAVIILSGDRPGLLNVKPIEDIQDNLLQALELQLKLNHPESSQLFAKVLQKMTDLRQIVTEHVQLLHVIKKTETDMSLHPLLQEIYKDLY
Procedure: For PPRE reporter assay, HEK293T cells were seeded in 24-well plates at 1 × 10^5 cells/well. […] The luciferase activity was measured by Luc-Pair™ Duo-Luciferase HS Assay Kit (cat. no. LF600, Promega, USA) and normalized to the TK reporter signal.

SMILES | Fasting glucose, Average ([1]; week 0) | Fasting glucose, Average ([1]; week 2) | Fasting glucose, Average ([1]; week 4) | Fasting glucose, Average ([1]; week 6) | Fasting glucose, Average ([1]; week 8) | Fasting glucose, Average ([1]; week 10) | Fasting glucose, Average ([1]; week 12) | Fasting glucose, Average ([1]; week 14) | Fasting glucose, Average ([1]; week 16) | Fasting glucose, Average ([1]; week 18) | Fasting glucose, Average ([1]; week 20) | Fasting glucose, Average ([1]; week 22) | Fasting glucose, Average ([1]; week 24) | other results
Cc1[nH]c2nc(C(C)N3CCN(c4ccccc4)CC3)nn2c(=O)c1Cc1ccc(F)cc1 (stereo not shown) [BPRPT245] | 172.4 | 215 | 172.4 | 168.6 | 182.6 | 183.2 | 184.933 | 181.467 | 186.667 | 173.933 | 159.8 | 158.933 | 164.4 | –
CCCCCC(=O)/C=C/[C@H]1[C@H](O)CC(=O)[C@@H]1C/C=C\CCCC(=O)O [15-keto-PGE2, 15-keto-prostaglandin E2] | – | – | – | – | – | – | – | – | – | – | – | – | – | PPRE reporter activity, Fig 1M replicates ([2]; 15kPGE2 1uM): 1.1721 and 1.0341 and 1.1068; PPRE reporter activity, Fig 1M replicates ([2]; 15kPGE2 5uM): 0.9678 and 0.853 and 0.9258; PPRE reporter activity, Fig 1M replicates ([2]; 15kPGE2 10uM): 0.6267 and 0.6796 and 0.8917; PPRE reporter activity, mutant mPPARγ (C313A) ([2]; HEK293T): abolished
Cc1[nH]c2nc(C(C)N3CCN(c4ccccc4)CC3)nn2c(=O)c1Cc1ccc(F)cc1 (stereo not shown) [BPRPT0245] | 172.4 | 215 | 172.4 | 168.6 | 182.6 | 183.2 | 184.933 | 181.467 | 186.667 | 173.933 | 159.8 | 158.933 | 164.4 | fasting plasma glucose ([1]; 100 mg/kg/day oral, HFHSD-fed mice, vs vehicle): lowered fasting plasma glucose; Fasting glucose (individual mouse) ([1]; week 0): 140 and 191 and 194 and 229 and 230 and 148 and 190 and 111 and 179; Fasting glucose (individual mouse) ([1]; week 2): 178 and 220 and 216 and 291 and 182 and 199 and 225 and 148; Fasting glucose (individual mouse) ([1]; week 4): 162 and 198 and 190 and 178 and 194 and 163 and 177; Fasting glucose (individual mouse) ([1]; week 6): 151 and 215 and 171 and 164 and 188 and 139 and 181; Fasting glucose (individual mouse) ([1]; week 8): 164 and 212 and 172 and 202 and 171 and 198 and 219; Fasting glucose (individual mouse) ([1]; week 10): 224 and 198 and 153 and 169 and 162 and 150 and 171; Fasting glucose (individual mouse) ([1]; week 12): 187 and 219 and 140 and 175 and 200 and 156 and 161 and 177; Fasting glucose (individual mouse) ([1]; week 14): 220 and 210 and 169 and 202 and 174 and 149 and 142; Fasting glucose (individual mouse) ([1]; week 16): 212 and 199 and 167 and 164 and 191 and 183 and 171; Fasting glucose (individual mouse) ([1]; week 18): 179 and 178 and 134 and 146 and 197 and 201 and 147 and 181 and 202; Fasting glucose (individual mouse) ([1]; week 20): 179 and 154 and 153 and 170 and 174 and 220 and 131 and 171 and 134; Fasting glucose (individual mouse) ([1]; week 22): 195 and 156 and 123 and 149 and 148 and 163 and 132 and 201 and 161; Fasting glucose (individual mouse) ([1]; week 24): 119 and 164 and 166 and 168 and 204 and 174
CCCCCC(=O)CC[C@H]1[C@H](O)CC(=O)[C@@H]1C/C=C\CCCC(=O)O [13,14-dihydro-15-keto-PGE2] | – | – | – | – | – | – | – | – | – | – | – | – | – | PPRE reporter activity, Fig 1M replicates ([2]; 1314dh-15kPGE2 5uM): 1.0835 and 0.6291 and 0.9127; PPRE reporter activity, Fig 1M replicates ([2]; 1314dh-15kPGE2 10uM): 0.8254 and 0.8511 and 0.9733
